Experimental data from PMC11968506, “Toxicokinetics and analytical toxicology of the phenmetrazine-derived new psychoactive substance 3,4-methylenedioxyphenmetrazine studied by means of in vitro systems” (Archives of Toxicology, 2025).

Test: In vitro plasma protein binding (ultrafiltration, Centrifree)
Format: in vitro ADME
Conditions: 30 min at 37 °C, triplicate
Procedure: PPB of MDPM was investigated based on published procedures with minor adjustments (Gampfer et al. [2020]), (Mardal et al. [2016]). A volume of 450 µL fresh human blood plasma was spiked with 50 µL of a 5 µM methanolic solution of MDPM. The mixture was incubated for 30 min at 37 °C. Plasma aliquots of 100 µL and 400 µL were transferred to a new reaction tube (global approach, GA) and onto two-chambered Centrifree devices from Merck (Darmstadt, Germany), respectively. The Centrifree devices were centrifuged for 40 min and 1600×g to obtain 100 µL of ultrafiltrate (UF). UF and GA were precipitated using 50 µL acetonitrile (− 20 °C). The mixture was vortexed, cooled for 30 min at − 20 °C, and centrifuged for 3 min at 18,407×g. […] Experiments were done in triplicate. Fraction unbound (fu) and PPB was determined by comparing the area ratios of MDPM and trimipramine-d3 in the UF and GA using the following equations:1 fu=peak area ratioMDPMUF/ISUF/peak area ratioMDPMGA/ISGA 2 PPB[%]=1-fu∗100

In the case of `CC1NCCOC1c1ccc2c(c1)OCO2` (centres unmarked) [MDPM, 2-(1,3-benzodioxol-5-yl)-3-methylmorpholine], the fraction unbound at 30 min, 0.5 µM (fresh human blood plasma, read-out: plasma protein binding (PPB) (converted)) is reported as 0.68 and the “plasma protein binding (PPB)” value (human plasma) is reported as 32%.
